In the NIST ThermoML archive (doi:10.1016/j.jct.2019.06.026):
Numbers after ± are expanded uncertainties.

Details: Liquid, Ebulliometric method (Recirculating still)

## CN1CCCC1=O [N-methylpyrrolidone]
476.05 K
  vapor or sublimation pressure: 101.3 ± 3.6 kPa

## CNC=O [N-methylformamide]
471.2 K
  vapor or sublimation pressure: 101.3 ± 3.6 kPa

## CN(C)C=O [dimethylformamide]
426.05 K
  vapor or sublimation pressure: 101.3 ± 3.6 kPa

## OCC(F)(F)C(F)F [2,2,3,3-tetrafluoro-1-propanol]
381.95 K
  vapor or sublimation pressure: 101.3 ± 3.6 kPa
